# Experimental data: patent publication US20240294586A1, “TENASCIN-C AUTOANTIGENIC EPITOPES IN RHEUMATOID ARTHRITIS” (Benaroya Research Institute at Virginia Mason, priority 2020, published 2024)
# Where no end group is shown, it is not given here. [ ]: non-standard residue; d: D form. Cit = NC(=O)NCCC[C@H](N)C(=O)O
# Experiments:
# [1] = test system: antibodies in sera from RA and HC subjects; assay: ELISA for detection of serum antibodies against peptides; type: binding, human; details: for antibody reactivity relative to threshold for positivity: Autoantibody Cohort 2
# Protocol: ELISAs were used to detect antibodies against citrullinated peptides in sera from patients in Autoantibody Cohorts 1 and 2 (FIG. 6). Peptides used in the assay were synthesized by either GenScript or Pepceutical and are described in FIG. 12. The ELISAs were conducted as previously described (Riedl et al. 2001 Int J Colorectal Dis.16:285; Quarona et al. 2013 Cytometry Part B, Clinical cytometry 84:207). In brief, 96-well Nunc Maxisorp plates were coated with 10 μg/ml peptide in PBS, blocked with 2% BSA and incubated with sera diluted 1:100. Bound antibodies were detected with an HRP-conjugated anti-human IgG Fc monoclonal antibody (6043HRP, Stratech). A standard curve of positive sera was used to calculate relative antibody titers in arbitrary units (AU) for each sample. The CCP2 ELISA for Autoantibody Cohort 1 was performed as by the manufacturer's instruction (FCCP600, Axis-Shield). Cross-reactivity was analyzed in human sera that were reactive to both cTNC56 or cTNC17 and cTNC5. Sera were diluted 1:100, incubated with 1, 10 and 100 μg/ml of peptides for 2 hours, centrifuged at 10,000 g for 10 min and the supernatant added to peptide-coated plates for analysis by ELISA as described above. Positivity was defined by the cut-off of the 98% percentile of healthy control samples from Autoantibody Cohort 1.
# HLA-DRB1*04:01 [2] = target: HLA-DRB1*04:01 (Homo sapiens, UniProt P01903+P01911, A100K/A169T/F76Y/I96L/K127E/L162R/M171V/N62H/P40V/Q125Y/R42H/S133A/S149N/S66Y/V115G/V209L/W38E); assay: Peptide competition binding assay to HLA-DRB1*04:01; details: competition with 0.01 μM biotinylated influenza HA306-318
# [3] = test system: peripheral blood mononuclear cells (PBMC) from HLA-DRB1*04:01 positive subjects; assay: In vitro expansion of peptide-specific T cells and HLA class II tetramer staining; type: cell-based, human; details: two weeks of in vitro expansion, 10 μg/ml peptide
# Protocol: (§1) Recombinant HLA-DRB1*04:01 protein was produced by the BRI Tetramer Core (Benaroya Research Institute, Seattle, WA) as previously described (Novak et al. 1999 J Clin Inv.104:R63). Soluble HLA-DRB1*04:01 monomer was purified from insect cell culture supernatants and biotinylated at a sequence-specific site using biotin ligase (Avidity) prior to dialysis into phosphate storage buffer. The biotinylated monomer was loaded with 0.2 mg/ml of peptide by incubating at 37° C. for 72 hours in the presence of 2.5 mg/ml n-octyl-β-D-glucopyranoside and 1 mM Pefabloc SC (Sigma-Aldrich). Peptide loaded monomers were conjugated into tetramers using fluorescently labeled streptavidin (Invitrogen) for 6-18 hours at room temperature at a molar ratio of 8:1.
# Cryopreserved PBMCs from RA and healthy subjects were cultured at 5×10^6 cells/well in a 48 well plate in RPMI-1640+10% HPS with 10 μg/ml of peptide. IL-2 (Novartis) was added at 325 IU/ml on day 6. On day 14, cells were stained for expression of tetramer-PE, CD25 APC (BD) and CD4 FITC (BioLegend), and then characterized by immunocytofluorimetry on a FACSCanto™ (BD). The data were analyzed by FlowJo software version 10.
# [4] = test system: CCP-reactive antibody (ACPA) pools from plasma and synovial fluid; assay: Extracellular matrix peptide microarray with polyclonal CCP-pools; type: binding, human; details: ACPA pools at 15 μg/ml
# Protocol: The custom-made microarray was performed as previously described (Steen et al. 2019 Arthritis Rheumatol. 71:196). In brief, 16-aa long peptides that covered all arginine residues of 1,610 extracellular matrix proteins and RA related proteins were synthesized in situ (Roche NimbleGen). For tenascin C, there were a total of 217 peptides including both native and citrullinated variants of each peptide synthesized. Samples tested for reactivity against TNC derived peptides included synovial and plasma ACPA pools containing CCP-reactive antibodies from 26 and 38 RA patients, respectively (Ossipova et al. 2014 Arthritis Res Ther. 16:R167; Sahlström et al. 2020 Arthritis Rheumatol. 72:1643) Paired synovial fluid and serum samples from one RA patient taken at two time points 10 years apart were also screened. ACPA pools were run at a concentration of 15 μg/ml, whereas synovial fluid and plasma or serum samples were diluted 1/100 and tested for citrulline reactivity using a NimbleGen MS200 Scanner (Roche NimbleGen). A peptide signal intensity variation (spot size) of pixels was used as a basis for calculating the median fluorescence intensities. The cutoff for positive signals was defined as 5 times the fluorescence intensity of the 98th percentile of values for a set of monoclonal antibodies without citrulline reactivity. […]
# memory CD4+ T cells = assay: Ex vivo detection of peptide-reactive T cells by multiplex HLA class II tetramers; type: cell-based, human; details: peripheral blood, RA n=9, HC n=7
# Protocol: as §1, with “Peptide loaded monomers were conjugated into tetramers using fluorescently labeled streptavidin (Invitrogen) for 6-18 hours at room temperature at a molar ratio of 8:1.” left out
# Ex vivo tetramer staining and enrichment was accomplished using previously published protocols (Rims et al. 2019 Arthritis Rheumatol. 71:518; Uchtenhagen et al. 2016 Nat Comm 7:12614). […] Samples were run on a BD LSRII flow cytometer, and data was analyzed using FlowJo software version 10. The frequency (F) of epitope-specific T cells per million memory CD4+ T cells was calculated as follows: F=(1,000,000×tetramer-positive events from enriched tube)/(100×number of memory CD4+ T cells from the “Pre” fraction). […] These served as the parent populations from which one of the four tetramer positive T-cell populations were then gated on and analyzed for surface receptor expression. […]
# HLA-DRB1*04:01 [5] = target: T1, HLA-DRB1*04:01 (human); assay: peptide competition assay against biotinylated HA306-318
# T1 construct: MHC class II molecule; also called HLA-DR protein; recombinant HLA-DRB1*04:01 protein
molecule,measurement,setting,value
arg-TNC56: corresponding unmodified arginine-containing peptide of cit-TNC56 (QGQYELRVDLRDHGE),antibody reactivity relative to threshold for positivity,[1],below the threshold for positivity in almost all subjects
same,binding to HLA-DRB1*04:01,HLA-DRB1*04:01 [2],did not
arg-TNC22: corresponding unmodified arginine-containing peptide of cit-TNC22 (FDRYRLNYSLPTGQW),immunogenicity: epitope-specific T cell expansion by HLA Class II tetramer staining,[3],ability to elicit T cell responses
same,binding to HLA-DRB1*04:01,HLA-DRB1*04:01 [2],bound
arg-TNC17: corresponding unmodified arginine-containing peptide of cit-TNC17 (VSLISRRGDMSSNPA),antibody reactivity relative to threshold for positivity,[1],below the threshold for positivity in almost all subjects
same,binding to HLA-DRB1*04:01,HLA-DRB1*04:01 [2],did not
"cit-TNC5: previously published citrullinated peptide from the C-terminal FBG domain of TNC, used as positive control (CEHSIQFAEMKL[Cit]PSNF[Cit]NLEG[Cit][Cit]KRC; not fully specified; cysteine pairing not given here) [reference compound]",RA sera with antibodies to the peptide,"[1]; Autoantibody Cohort 1, HLA-DRB1*04:01 and CCP positive RA n=17",47%
same,antibody titers / reactivity in RA sera,"[1]; Autoantibody Cohort 1, sera diluted 1:100",highest
same,antibody reactivity in plasma CCP-pool,[4],could be verified
same,antibody reactivity in synovial fluid derived antibody pools,[4],strong positive signal
arg-TNC45: corresponding unmodified arginine-containing peptide of cit-TNC45 (PDGFRLSWTADEGVF),immunogenicity: epitope-specific T cell expansion by HLA Class II tetramer staining,[3],ability to elicit T cell responses
same,binding to HLA-DRB1*04:01,HLA-DRB1*04:01 [2],bound
"MP 97-116: influenza peptide used as positive control (VKLYRKLKREITFHGAKEIS; Matrix protein 1; UniProt P03485 97-116, looked up, fragment) [reference compound]",frequency of peptide-specific memory CD4+ T cells in RA compared to HC subjects,memory CD4+ T cells,did not differ between RA and HC subjects
VSLISRRGDMSSNPA (not fully specified) [arg-TNC17],binding result,HLA-DRB1*04:01 [5],no binding
"QGQYELRVDLRDHGE (not fully specified, See note of arg-TNC17) [arg-TNC56]",binding result,HLA-DRB1*04:01 [5],no binding
